# Publication PMC5650530 (ACS chemical biology, 2017)
# Where two headings read alike, the source gives them in different places.
# Assays:
# [1] = target: T1, PTGR2 (Homo sapiens, UniProt Q8N8N7); assay: 15-keto PGE2 substrate assay with recombinant PTGR2 protein; format: biochemical; settings: read-out: IC50, inhibition of dhk-PGE2 production, 15-keto PGE2 and NADPH, 95% CI 4.4–16 μM
# Target sequence in this assay (Q8N8N7 whole entry): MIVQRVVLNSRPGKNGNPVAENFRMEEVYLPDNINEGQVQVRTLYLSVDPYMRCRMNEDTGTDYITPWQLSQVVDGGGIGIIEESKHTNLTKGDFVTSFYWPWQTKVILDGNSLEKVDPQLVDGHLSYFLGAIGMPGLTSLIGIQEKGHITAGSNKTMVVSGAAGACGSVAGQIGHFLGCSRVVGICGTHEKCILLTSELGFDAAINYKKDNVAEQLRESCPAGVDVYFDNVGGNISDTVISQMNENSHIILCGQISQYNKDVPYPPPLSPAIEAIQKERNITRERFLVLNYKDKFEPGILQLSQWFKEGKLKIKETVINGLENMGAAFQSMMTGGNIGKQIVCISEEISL
# [2] = tested on: PPAR-γ; settings: cited from earlier work
# [3] = reference not given; cited from earlier work
# [4] = target: T2, BAIAP2 (Homo sapiens, UniProt Q9UQB8); assay: LiPIP; format: binding; settings: KDT501 25 and 50 μM; A-DA or AEA-DA probe 10 μM; HEK293T cells
# T2 sequence (Q9UQB8 1-552): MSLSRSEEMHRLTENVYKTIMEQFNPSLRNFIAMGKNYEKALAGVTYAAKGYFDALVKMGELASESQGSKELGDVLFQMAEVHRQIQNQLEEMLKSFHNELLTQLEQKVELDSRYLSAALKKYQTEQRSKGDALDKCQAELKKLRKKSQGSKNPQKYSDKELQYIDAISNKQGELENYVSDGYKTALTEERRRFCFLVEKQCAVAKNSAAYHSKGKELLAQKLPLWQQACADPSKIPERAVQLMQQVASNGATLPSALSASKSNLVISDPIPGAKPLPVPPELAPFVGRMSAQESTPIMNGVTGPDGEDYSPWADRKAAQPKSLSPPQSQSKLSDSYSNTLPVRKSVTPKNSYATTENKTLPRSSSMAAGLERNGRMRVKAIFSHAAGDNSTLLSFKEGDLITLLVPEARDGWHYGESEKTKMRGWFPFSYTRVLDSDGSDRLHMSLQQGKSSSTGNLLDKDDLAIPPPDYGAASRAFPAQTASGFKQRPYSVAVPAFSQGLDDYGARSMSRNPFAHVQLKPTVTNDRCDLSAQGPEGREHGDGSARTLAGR
# [5] = target: T1, PTGR2; assay: 15-keto PGE2 reductase activity of PTGR2-transfected HEK293T cell lysates; format: biochemical; settings: read-out: IC50, inhibition of 15-keto PGE2 reductase activity; lysates from HEK293T cells transfected with PTGR2; 95% CI 1.4–2.4 μM
# Target sequence in this assay (Q8N8N7 whole entry, species assumed): as the sequence (Q8N8N7 whole entry) above
# [6] = target: T1, PTGR2; format: binding; settings: read-out: IC50, blockade of A-DA probe labeling of recombinant PTGR2; transfected cell lysates; A-DA 5 μM; 95% CI 3.0–5.3 μM
# Target sequence in this assay (Q8N8N7 whole entry, species assumed): as the sequence (Q8N8N7 whole entry) above
# [7] = target: T1, PTGR2; assay: LiPIP; format: binding; settings: KDT501 25 and 50 μM; A-DA or AEA-DA probe 10 μM; HEK293T cells
# Target sequence in this assay (Q8N8N7 whole entry): as the sequence (Q8N8N7 whole entry) above
smiles,measurement,setting,value
CC(C)CCC(=O)[C@]1(O)C(=O)[C-](C(=O)CC(C)C)C(=O)[C@H]1CCC(C)C.[K+] (stereo partly shown) [KDT501],IC50,[1],8.4 µM
same,agonism of PPAR-γ,[2],weak agonist
same,moderately potent activity in cells (concentration),[3],10 to 50 µM
same,blockade of lipid probe enrichment of BAIAP2,[4],substantive blockade of enrichment
same,IC50,[5],1.8 µM
same,IC50,[6],4 µM
same,blockade of lipid probe enrichment of PTGR2,[7],substantive blockade of enrichment
